From publication PMC5743680, “Bleogens: Cactus-Derived Anti-Candida Cysteine-Rich Peptides with Three Different Precursor Arrangements” (Frontiers in Plant Science, 2017) come the findings set out here.

The nature of the test: Heparin affinity chromatography. It counts as binding. The settings on record: TSKgel Heparin-5PW column, 10 mM phosphate buffer, pH 7.2. The procedure: Heparin binding chromatography was performed by high performance liquid chromatography (HPLC; Shimadzu, Japan). A linear gradient of mobile phase A (10 mM phosphate buffer, pH 7.2) and mobile phase B (0.75 M NaCl in 10 mM phosphate buffer, pH 7.2) was used with a TSKgel Heparin-5PW column ([…], 10 μm; Tosoh Bioscience, Japan).

As for SIGGIR, the “binding to heparin HPLC affinity column” value is listed as “did not bind”.
